Measured values from patent US9694016B2 (Novartis AG, priority 2013, dated 2017).
Where two headings read alike, the source gives them in different places. One block for each compound: values may come before it.

Molecular target: b-Raf (V600E) (Homo sapiens (Human), UniProt P15056, V600E)
Conditions: read-out: b-Raf IC-50, AlphaScreen
[1] = 60 min pre-incubation, reaction 3 hours at room temperature
[2] = 60 min pre-incubation, 3 hours reaction

Sequence of b-Raf (V600E) (P15056 whole entry V600E): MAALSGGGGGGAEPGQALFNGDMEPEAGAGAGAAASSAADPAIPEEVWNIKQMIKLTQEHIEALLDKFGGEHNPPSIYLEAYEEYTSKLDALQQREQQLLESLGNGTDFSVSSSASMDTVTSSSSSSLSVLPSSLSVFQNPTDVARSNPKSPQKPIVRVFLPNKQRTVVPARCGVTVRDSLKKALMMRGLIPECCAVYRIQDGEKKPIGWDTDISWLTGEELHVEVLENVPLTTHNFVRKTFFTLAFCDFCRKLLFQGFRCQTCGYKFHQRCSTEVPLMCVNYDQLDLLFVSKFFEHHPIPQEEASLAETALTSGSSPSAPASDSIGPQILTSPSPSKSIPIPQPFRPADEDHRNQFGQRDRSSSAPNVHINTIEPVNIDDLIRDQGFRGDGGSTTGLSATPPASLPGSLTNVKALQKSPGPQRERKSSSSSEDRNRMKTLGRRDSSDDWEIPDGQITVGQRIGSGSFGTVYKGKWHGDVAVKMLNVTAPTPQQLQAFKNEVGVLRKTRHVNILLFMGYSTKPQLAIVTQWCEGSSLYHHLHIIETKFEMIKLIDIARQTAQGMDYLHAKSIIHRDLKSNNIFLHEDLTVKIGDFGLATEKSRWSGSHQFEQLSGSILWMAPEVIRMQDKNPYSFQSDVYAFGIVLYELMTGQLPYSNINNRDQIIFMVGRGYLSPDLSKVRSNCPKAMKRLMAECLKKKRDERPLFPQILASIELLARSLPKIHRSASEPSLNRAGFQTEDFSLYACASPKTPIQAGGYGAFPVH

SMILES: Cc1ccc(NC(=O)c2ccnc(C(C)(C)C#N)c2)cc1-c1cc(N2CCOCC2)c(OCCO)nn1 [Example 591, 2-(2-cyanopropan-2-yl)-N-(3-(6-(2-hydroxyethoxy)-5-morpholinopyridazin-3-yl)-4-methylphenyl)isonicotinamide]
- IC50 [2]: 2.1 nM

SMILES: Cn1cc(-c2cc(NC(=O)c3cccc(C(F)(F)F)c3)ccc2Cl)cc(N2CCOCC2)c1=O [Example 409, N-(4-chloro-3-(1-methyl-5-morpholino-6-oxo-1,6-dihydropyridin-3-yl)phenyl)-3-(trifluoromethyl)benzamide]
- IC50 (Table 2, 3 hours reaction): 1.7 nM

SMILES: Cc1ncc(NC(=O)c2cccc(C(F)(F)F)c2)cc1-c1cc(N2CCOCC2)c(=O)n(CCC#N)c1 [Example 333, N-(1′-(2-cyanoethyl)-2-methyl-5′-morpholino-6′-oxo-1′,6′-dihydro-[3,3′-bipyridin]-5-yl)-3-(trifluoromethyl)benzamide]
- IC50 (Table 2, 3 hours reaction): 11.4 nM

SMILES: Cc1ncc(C(=O)Nc2cccc(C(C)(C)O)c2)cc1-c1cc(N2CCOCC2)c(=O)n(C)c1 [Example 446, N-(3-(2-hydroxypropan-2-yl)phenyl)-1′,2-dimethyl-5′-morpholino-6′-oxo-1′,6′-dihydro-[3,3′-bipyridine]-5-carboxamide]
- IC50 [2]: 100 nM

SMILES: CCOc1ncc(-c2cc(NC(=O)c3ccnc(C(C)(F)F)c3)ccc2C)cc1N1CCOCC1 [Example 233, 2-(1,1-difluoroethyl)-N-(3-(6-ethoxy-5-morpholinopyridin-3-yl)-4-methylphenyl)isonicotinamide]
- IC50 (Table 2, 3 hours reaction): 0.6 nM

SMILES: CCOc1ncc(-c2cc(NC(=O)c3cnnc(C(F)(F)F)c3)cnc2C)cc1N1CCOC[C@@H]1C [Example 286, (S)—N-(6′-ethoxy-2-methyl-5′-(3-methylmorpholino)-[3,3′-bipyridin]-5-yl)-6-(trifluoromethyl)pyridazine-4-carboxamide]
- IC50 (Table 2, 3 hours reaction): 200 nM

SMILES: CCOc1ncc(-c2cc(NC(=O)c3cnnc(C(F)(F)F)c3)ccc2C)cc1N1CCOCC1 [Example 280, N-(3-(6-ethoxy-5-morpholinopyridin-3-yl)-4-methylphenyl)-6-(trifluoromethyl)pyridazine-4-carboxamide]
- IC50 (Table 2, 3 hours reaction): 1.1 nM

SMILES: Cc1ccc(NC(=O)c2cccc(C3(C#N)CC3)c2Cl)cc1-c1cc(N2CCOCC2)c(=O)n(C)c1 [Example 346, 2-chloro-3-(1-cyanocyclopropyl)-N-(4-methyl-3-(1-methyl-5-morpholino-6-oxo-1,6-dihydropyridin-3-yl)phenyl)benzamide]
- IC50 (Table 2, 3 hours reaction): 8.7 nM

SMILES: Cc1ccc(NC(=O)c2cnnc(C3CC3)c2)cc1-c1cc(N2CCOCC2)c(=O)n(C)n1 [Example 644, 6-cyclopropyl-N-(4-methyl-3-(1-methyl-5-morpholino-6-oxo-1,6-dihydropyridazin-3-yl)-phenyl)pyridazine-4-carboxamide]
- IC50 [2]: 2.9 nM

SMILES: Cc1ncc(NC(=O)c2ccnc(S(C)(=O)=O)c2)cc1-c1cc(N2CCOCC2)n(C)c(=O)c1 [Example 504, N-(1′,2-dimethyl-6′-morpholino-2′-oxo-1′,2′-dihydro-[3,4′-bipyridin]-5-yl)-2-(methylsulfonyl)isonicotinamide]
- IC50 [2]: 21 nM

SMILES: CCOc1ncc(-c2cc(NC(=O)c3ccnc(C4COC4)c3)cnc2C)cc1N1CCOCC1 [Example 255, N-(6′-ethoxy-2-methyl-5′-morpholino-[3,3′-bipyridin]-5-yl)-2-(oxetan-3-yl)isonicotinamide]
- IC50 (Table 2, 3 hours reaction): 5.6 nM

SMILES: Cc1ccc(NC(=O)c2ccnc(C(C)(C)C#N)c2)cc1-c1cc(N2CCOCC2)n(C)c(=O)c1 [Example 487, 2-(2-cyanopropan-2-yl)-N-(4-methyl-3-(1-methyl-6-morpholino-2-oxo-1,2-dihydropyridin-4-yl)phenyl)isonicotinamide]
- IC50 [2]: 2.8 nM

SMILES: Cc1ncc(NC(=O)c2cc(C3CC3)on2)cc1-c1cc(N2CCOCC2)c(=O)n(C)c1 [Example 380, 5-cyclopropyl-N-(1′,2-dimethyl-5′-morpholino-6′-oxo-1′,6′-dihydro-[3,3′-bipyridin]-5-yl)isoxazole-3-carboxamide]
- IC50 (Table 2, 3 hours reaction): 12.5 nM

SMILES: Cc1ncc(NC(=O)c2ccnc(C(C)(C)C#N)c2)cc1-c1cncc(N2CCOCC2)n1 [Example 532, 2-(2-cyanopropan-2-yl)-N-(6-methyl-5-(6-morpholinopyrazin-2-yl)pyridin-3-yl)isonicotinamide]
- IC50 [2]: 7.7 nM

Results, then the compound that gave them:

- IC50 [1]: 12.2 nM
SMILES: CCC(F)(F)c1cc(C(=O)Nc2cnc(C)c(-c3cc(N4CCOCC4)c(S(C)(=O)=O)nn3)c2)ccn1 [Example 925, 2-(1,1-difluoropropyl)-N-(6-methyl-5-(6-(methylsulfonyl)-5-morpholinopyridazin-3-yl)pyridin-3-yl)isonicotinamide]

- IC50 [1]: 3.95 nM
SMILES: Cc1ccc(NC(=O)c2cnnc(C(F)(F)F)c2)cc1-c1cc(NCCO)nc(N2CCOCC2)c1 [Example 1047, N-(3-(2-((2-hydroxyethyl)amino)-6-morpholinopyridin-4-yl)-4-methylphenyl)-6-(trifluoromethyl)pyridazine-4-carboxamide]

- IC50 [1]: 70.2 nM
SMILES: Cc1ccc(NC(=O)c2ccnc(C(C)(C)C#N)c2)cc1-c1nc2c(c(N3CCOCC3)n1)CN(C(=O)OC(C)(C)C)CC2 [Example 864, tert-butyl 2-(5-(2-(2-cyanopropan-2-yl)isonicotinamido)-2-methylphenyl)-4-morpholino-7,8-dihydropyrido[4,3-d]pyrimidine-6(5H)-carboxylate]

- IC50 [2]: 2.4 nM
SMILES: Cc1ccc(NC(=O)c2ccnc(C(C)(C)F)c2)cc1-c1cc(C2CCOCC2)c(=O)n(C)n1 [Example 676, 2-(2-fluoropropan-2-yl)-N-(4-methyl-3-(1-methyl-6-oxo-5-(tetrahydro-2H-pyran-4-yl)-1,6-dihydropyridazin-3-yl)phenyl)isonicotinamide]

- IC50 [1]: 6.1 nM
SMILES: Cc1ncc(NC(=O)c2ccnc(C(C)(F)F)c2)cc1-c1cc(N2CCOCC2)c2nccn2c1 [Example 879, 2-(1,1-difluoroethyl)-N-(6-methyl-5-(8-morpholinoimidazo[1,2-a]pyridin-6-yl)pyridin-3-yl)isonicotinamide]

- IC50 [1]: 2.33 nM
SMILES: Cc1ccc(NC(=O)c2cc(C(C)(F)F)ccn2)cc1-c1cc(N2CCOCC2)c(=O)n(C)c1 [Example 905, 4-(1,1-difluoroethyl)-N-(4-methyl-3-(1-methyl-5-morpholino-6-oxo-1,6-dihydropyridin-3-yl)phenyl)picolinamide]

- IC50 [1]: 4.53 nM
SMILES: Cc1ncc(NC(=O)c2cccc(S(C)(=O)=O)c2)cc1-c1cnc(OC2CCOCC2)c(N2CCOCC2)c1 [Example 937, N-(2-methyl-5′-morpholino-6′-((tetrahydro-2H-pyran-4-yl)oxy)-[3,3′-bipyridin]-5-yl)-3-(methylsulfonyl)benzamide]

- IC50 [1]: 2.8 nM
SMILES: Cc1ncc(NC(=O)c2ccc(C(O)CO)c(C(F)(F)F)c2)cc1-c1cc(N2CCOCC2)c2nccn2n1 (centres unmarked) [Example 873, 4-(1,2-dihydroxyethyl)-N-(6-methyl-5-(8-morpholinoimidazo[1,2-b]pyridazin-6-yl)pyridin-3-yl)-3-(trifluoromethyl)benzamide]

- IC50 [2]: 17.9 nM
SMILES: Cc1ccc(NC(=O)c2cnnc(C(C)(C)C#N)c2)cc1-c1cc(N2CCOCC2)nc(NCCO)n1 [Example 737, 6-(2-cyanopropan-2-yl)-N-(3-(2-((2-hydroxyethyl)amino)-6-morpholinopyrimidin-4-yl)-4-methylphenyl)pyridazine-4-carboxamide]

- IC50 [1]: 1.31 nM
SMILES: Cc1ncc(NC(=O)c2cc(C(F)(F)F)ccn2)cc1-c1cc(N2CCOCC2)c(OCC(F)F)nn1 [Example 916, N-(5-(6-(2,2-difluoroethoxy)-5-morpholinopyridazin-3-yl)-6-methylpyridin-3-yl)-4-(trifluoromethyl)picolinamide]

- IC50 [1]: 2.28 nM
SMILES: Cc1ncc(NC(=O)c2ccnc(C3CC3)c2)cc1-c1cnc(OC2CCOCC2)c(N2CCOCC2)c1 [Example 941, 2-cyclopropyl-N-(2-methyl-5′-morpholino-6′-((tetrahydro-2H-pyran-4-yl)oxy)-[3,3′-bipyridin]-5-yl)isonicotinamide]

- IC50 [1]: 1.07 nM
SMILES: Cc1ccc(NC(=O)c2ccnc(C(C)(F)F)c2)cc1-c1cc(NCCO)nc(N2CCOCC2)c1 [Example 1037, 2-(1,1-difluoroethyl)-N-(3-(2-((2-hydroxyethyl)amino)-6-morpholinopyridin-4-yl)-4-methylphenyl)isonicotinamide]

- IC50 [1]: 6.7 nM
SMILES: Cc1ncc(NC(=O)c2ccnc(C(F)F)c2)cc1-c1cc(N2CCOCC2)nc(N2CC(C)(O)C2)c1 [Example 1103, 2-(difluoromethyl)-N-(2′-(3-hydroxy-3-methylazetidin-1-yl)-2-methyl-6′-morpholino-[3,4′-bipyridin]-5-yl)isonicotinamide]

- IC50 [1]: 7.72 nM
SMILES: CCOc1nnc(-c2cc(C(=O)Nc3ccnc(C(C)(F)F)c3)ccc2C)cc1N1CCOCC1 [Example 1020, N-(2-(1,1-difluoroethyl)pyridin-4-yl)-3-(6-ethoxy-5-morpholinopyridazin-3-yl)-4-methylbenzamide]

- IC50 [1]: 8.31 nM
SMILES: CCOc1cc(-c2cc(NC(=O)c3ccnc(C(C)(C)C#N)c3)cnc2C)cc(N2CCOCC2)n1 [Example 1147, 2-(2-cyanopropan-2-yl)-N-(2′-ethoxy-2-methyl-6′-morpholino-[3,4′-bipyridin]-5-yl)isonicotinamide]

- IC50 [2]: 25.5 nM
SMILES: Cc1ccc(NC(=O)c2ccnc(C(C)(C)C#N)c2)cc1-c1cc(N2CCOCC2(C)C)c(=O)n(C)n1 [Example 671, 2-(2-cyanopropan-2-yl)-N-(3-(5-(3,3-dimethylmorpholino)-1-methyl-6-oxo-1,6-dihydropyridazin-3-yl)-4-methylphenyl)isonicotinamide]

- IC50 [1]: 2.13 nM
SMILES: CCC(F)(F)c1cc(C(=O)Nc2ccc(C)c(-c3cc(N4CCOCC4)c(S(C)(=O)=O)nn3)c2)ccn1 [Example 926, 2-(1,1-difluoropropyl)-N-(4-methyl-3-(6-(methylsulfonyl)-5-morpholinopyridazin-3-yl)phenyl)isonicotinamide]

- IC50 [1]: 19.7 nM
SMILES: Cc1ncc(NC(=O)c2cccc(C(F)(F)F)c2)cc1-c1cc(N2CCOCC2)c2nccn2c1 [Example 884, N-(6-methyl-5-(8-morpholinoimidazo[1,2-a]pyridin-6-yl)pyridin-3-yl)-3-(trifluoromethyl)benzamide]
